Data: PubChem BioAssay (NCI)
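GI50 marks 50% less growth. TGI marks complete inhibition of growth.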

Tests used:
Assay in all cases: NCI anticancer screen, dose series, 384-well format
[1] = test system: SN12C renal
[2] = test system: HOP-62 NSCLC
[3] = test system: A549 NSCLC
[4] = test system: NCI-H522 lung
[5] = test system: NCI-H226 lung
[6] = test system: TK-10 renal
[7] = test system: M14 melanoma
[8] = test system: UO-31 renal
[9] = test system: HS 578T breast
[10] = test system: OVCAR-4 ovarian
[11] = test system: IGROV1 ovarian
[12] = test system: T-47D breast
[13] = test system: CAKI-1 renal

## C[C@H](NC(=O)c1c(C(F)F)nn(C)c1Oc1cccc(C(F)(F)F)c1)c1ccc(C(=O)O)cc1
[1]
  GI50: > 100 µM
  TGI: > 100 µM
[2]
  GI50: > 100 µM
  TGI: > 100 µM
[3]
  GI50: > 100 µM
  TGI: > 100 µM
[4]
  GI50: > 100 µM
  TGI: > 100 µM
[5]
  GI50: > 100 µM
  TGI: > 100 µM
[6]
  GI50: > 100 µM
  TGI: > 100 µM
[7]
  GI50: > 100 µM
  TGI: > 100 µM
[8]
  GI50: > 100 µM
  TGI: > 100 µM
[9]
  GI50: > 100 µM
  TGI: > 100 µM
[10]
  GI50: > 100 µM
  TGI: > 100 µM
[11]
  GI50: > 100 µM
  TGI: > 100 µM
[12]
  GI50: > 100 µM
  TGI: > 100 µM
[13]
  GI50: > 100 µM
  TGI: > 100 µM
